Reference: patent publication US20220324815A1, “2-PHENOXY-PYRIMIDINE DERIVATIVES AS HERBICIDAL COMPOUNDS” (SYNGENTA CROP PROTECTION AG, priority 2019, published 2022)

What was measured:
Format in all cases: in vivo
Settings in all cases: 250 g/ha unless otherwise stated, evaluated after 13 days, five-point scale
[1] = test system: Lolium perenne (LOLPE); test: Test 1 glasshouse herbicide test, pre-emergence application (Table B2)
Method in brief: (§1)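 Pots sown in standard soil; sprayed 1 day (pre-emergence) or 8 days (post-emergence) after sowing at 250 g/ha unless stated, in acetone/water (50:50) with 0.5% Tween 20. Glasshouse 24/16 °C, 14 h light, 65% humidity; damage scored at 13 days on a 1–5 scale (5=81–100%, 1=0–20%).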

[2] = test system: Amaranthus retoflexus (AMARE); test: as above
Method in brief: as §1

[3] = test system: Setaria faberi (SETFA); test: as above
Method in brief: as §1

[4] = test system: Echinochloa crus-galli (ECHCG); test: as above
Method in brief: as §1

[5] = test system: Solanum nigrum (SOLNI); test: as above
Method in brief: as §1

[6] = test system: Ipomoea hederacea (IPOHE); test: as above
Method in brief: as §1

[7] = test system: Lolium perenne (LOLPE); test: Test 1 glasshouse herbicide test, post-emergence application (Table B1)
Method in brief: as §1

[8] = test system: Amaranthus retoflexus (AMARE); test: as above
Method in brief: as §1

[9] = test system: Setaria faberi (SETFA); test: as above
Method in brief: as §1

[10] = test system: Echinochloa crus-galli (ECHCG); test: as above
Method in brief: as §1

[11] = test system: Solanum nigrum (SOLNI); test: as above
Method in brief: as §1

[12] = test system: Ipomoea hederacea (IPOHE); test: as above
Method in brief: as §1

SMILES	% phytotoxicity LOLPE, pre-emergence application [1]	% phytotoxicity AMARE, pre-emergence application [2]	% phytotoxicity SETFA, pre-emergence application [3]	% phytotoxicity ECHCG, pre-emergence application [4]	% phytotoxicity SOLNI, pre-emergence application [5]	% phytotoxicity IPOHE, pre-emergence application [6]	% phytotoxicity LOLPE, post-emergence application [7]	% phytotoxicity AMARE, post-emergence application [8]	% phytotoxicity SETFA, post-emergence application [9]	% phytotoxicity ECHCG, post-emergence application [10]	% phytotoxicity SOLNI, post-emergence application [11]	% phytotoxicity IPOHE, post-emergence application [12]
N#Cc1cccc(Oc2ncc(Cl)cn2)c1[S+]([O-])CCC(F)(F)F (stereo not drawn) [Compound A14]	3 (3=41 to 60%)	5 (5=81 to 100%)	5 (5=81 to 100%)	5 (5=81 to 100%)	5 (5=81 to 100%)	5 (5=81 to 100%)	4 (4=61 to 80%)	5 (5=81 to 100%)	5 (5=81 to 100%)	5 (5=81 to 100%)	5 (5=81 to 100%)	5 (5=81 to 100%)
N#Cc1cccc(Oc2ncc(Cl)cn2)c1S(=O)(=O)CCC(F)(F)F [Compound A15]	5 (5=81 to 100%)	5 (5=81 to 100%)	5 (5=81 to 100%)	5 (5=81 to 100%)	5 (5=81 to 100%)	5 (5=81 to 100%)	4 (4=61 to 80%)	5 (5=81 to 100%)	5 (5=81 to 100%)	5 (5=81 to 100%)	5 (5=81 to 100%)	5 (5=81 to 100%)
Clc1cnc(Oc2ccccc2SCc2ccccc2)nc1 [Compound A16]	1 (1=0 to 20%)	4 (4=61 to 80%)	2 (2=21 to 40%)	2 (2=21 to 40%)	1 (1=0 to 20%)	1 (1=0 to 20%)	1 (1=0 to 20%)	4 (4=61 to 80%)	2 (2=21 to 40%)	1 (1=0 to 20%)	3 (3=41 to 60%)	1 (1=0 to 20%)
O=S(=O)(CCCC(F)(F)F)c1c(Cl)cccc1Oc1ncc(Cl)cn1 [Compound A24]	4 (4=61 to 80%)	5 (5=81 to 100%)	5 (5=81 to 100%)	5 (5=81 to 100%)	5 (5=81 to 100%)	5 (5=81 to 100%)	5 (5=81 to 100%)	5 (5=81 to 100%)	5 (5=81 to 100%)	5 (5=81 to 100%)	5 (5=81 to 100%)	5 (5=81 to 100%)
FC(F)(F)CCCSc1c(Cl)cccc1Oc1ncc(Cl)cn1 [Compound A25]	5 (5=81 to 100%)	5 (5=81 to 100%)	5 (5=81 to 100%)	5 (5=81 to 100%)	5 (5=81 to 100%)	1 (1=0 to 20%)	5 (5=81 to 100%)	5 (5=81 to 100%)	5 (5=81 to 100%)	5 (5=81 to 100%)	5 (5=81 to 100%)	3 (3=41 to 60%)
[O-][S+](CCCC(F)(F)F)c1c(Cl)cccc1Oc1ncc(Cl)cn1 (stereo not drawn) [Compound A26]	5 (5=81 to 100%)	5 (5=81 to 100%)	5 (5=81 to 100%)	5 (5=81 to 100%)	5 (5=81 to 100%)	5 (5=81 to 100%)	5 (5=81 to 100%)	5 (5=81 to 100%)	5 (5=81 to 100%)	5 (5=81 to 100%)	5 (5=81 to 100%)	5 (5=81 to 100%)
Clc1ccc(CSc2ccccc2Oc2ncc(Cl)cn2)cc1 [Compound A27]	1 (1=0 to 20%)	5 (5=81 to 100%)	4 (4=61 to 80%)	4 (4=61 to 80%)	2 (2=21 to 40%)	1 (1=0 to 20%)	1 (1=0 to 20%)	5 (5=81 to 100%)	2 (2=21 to 40%)	2 (2=21 to 40%)	3 (3=41 to 60%)	2 (2=21 to 40%)
N#Cc1cccc(Oc2ncc(Cl)cn2)c1SCCCC(F)(F)F [Compound A28, 3-(5-chloropyrimidin-2-yl)oxy-2-(4,4,4-trifluorobutylsulfanyl)benzonitrile]	5 (5=81 to 100%)	5 (5=81 to 100%)	5 (5=81 to 100%)	5 (5=81 to 100%)	5 (5=81 to 100%)	5 (5=81 to 100%)	5 (5=81 to 100%)	5 (5=81 to 100%)	5 (5=81 to 100%)	5 (5=81 to 100%)	5 (5=81 to 100%)	5 (5=81 to 100%)
N#Cc1cccc(Oc2ncc(Cl)cn2)c1[S+]([O-])CCCC(F)(F)F (stereo not drawn) [Compound A29, 3-(5-chloropyrimidin-2-yl)oxy-2-(4,4,4-trifluorobutylsulfinyl)benzonitrile]	5 (5=81 to 100%)	5 (5=81 to 100%)	5 (5=81 to 100%)	5 (5=81 to 100%)	5 (5=81 to 100%)	5 (5=81 to 100%)	5 (5=81 to 100%)	5 (5=81 to 100%)	5 (5=81 to 100%)	5 (5=81 to 100%)	5 (5=81 to 100%)	5 (5=81 to 100%)
N#Cc1cccc(Oc2ncc(Cl)cn2)c1S(=O)(=O)CCCC(F)(F)F [Compound A30, 3-(5-chloropyrimidin-2-yl)oxy-2-(4,4,4-trifluorobutylsulfonyl)benzonitrile]	5 (5=81 to 100%)	5 (5=81 to 100%)	5 (5=81 to 100%)	5 (5=81 to 100%)	5 (5=81 to 100%)	5 (5=81 to 100%)	5 (5=81 to 100%)	5 (5=81 to 100%)	5 (5=81 to 100%)	5 (5=81 to 100%)	5 (5=81 to 100%)	4 (4=61 to 80%)
